According to US20100210649A1, “PYRIDAZINONES AND FURAN-CONTAINING COMPOUNDS” (Sloan-Kettering Institute for Cancer Research, priority 2006, published 2010):
Like-named read-outs stand apart in the source and are kept apart here.

Assays:
Type in all cases: cell-based, human
H2030 = assay: Non Small Cell Lung Cancer proliferation assay (Alamar Blue reduction), H2030; conditions: Homo sapiens, NCI-H2030, primary screening, 10 μM compound in 1% DMSO (v/v)
How it was run: (§1)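 Compounds are tested at 1% DMSO final concentration against adherent NSCLC cells for 48 h at 37° C, with cytotoxicity measured by Alamar Blue reduction after a further 48 h incubation.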

H1650 = assay: Non Small Cell Lung Cancer proliferation assay (Alamar Blue reduction), H1650; conditions: Homo sapiens, NCI-H1650, primary screening, 10 μM compound in 1% DMSO (v/v)
How it was run: as §1

H3255 = assay: Non Small Cell Lung Cancer proliferation assay (Alamar Blue reduction), H3255; conditions: Homo sapiens, NCI-H3255, primary screening, 10 μM compound in 1% DMSO (v/v)
How it was run: as §1

H1975 = assay: Non Small Cell Lung Cancer proliferation assay (Alamar Blue reduction), H1975; conditions: Homo sapiens, NCI-H1975, primary screening, 10 μM compound in 1% DMSO (v/v)
How it was run: as §1

[1] = H2030, read-out: PRIMARY HTS [%] H2030 (percentage inhibition)
[2] = H1650, read-out: PRIMARY HTS [%] H1650 (percentage inhibition)
[3] = H3255, read-out: PRIMARY HTS [%] H3255 (percentage inhibition)
[4] = H1975, read-out: PRIMARY HTS [%] H1975 (percentage inhibition)
[5] = read-out: percentage inhibition H2030
[6] = read-out: percentage inhibition H1650
[7] = read-out: percentage inhibition H3255
[8] = read-out: percentage inhibition H1975

Compound | inhibition at 10 µM (H2030; [1]) [%] | inhibition at 10 µM (H1650; [2]) [%] | inhibition at 10 µM (H3255; [3]) [%] | inhibition at 10 µM (H1975; [4]) [%] | inhibition at 10 µM (H2030; [5]) [%] | inhibition at 10 µM (H1650; [6]) [%] | inhibition at 10 µM (H3255; [7]) [%] | inhibition at 10 µM (H1975; [8]) [%]
O=C(Nc1ccc(NC(=O)c2ccc(Cl)cc2Cl)cc1)c1ccco1 [compound 72456] | 8 | 12 | 7 | 9 |  |  |  | 
O=c1c(Cl)cc(Cl)nn1-c1ccccc1 [compound 196392] |  |  |  |  | -13 | 87 | 111 | 99
Cc1cc(-n2ccc3c(C#N)c(=O)n(-c4ccccc4)nc3c2=O)[nH]n1 [compound 216994] |  |  |  |  | 4 | 1 | -3 | 1
COc1cnn(-c2cccc(Cl)c2)c(=O)c1Cl [compound 104390] |  |  |  |  | -6 | 15 | 34 | 4
O=C(Nc1ccc(N2CCN(Cc3ccccc3Cl)CC2)cc1)c1ccco1 [compound 92553] | 5 | 2 | 1 | -3 |  |  |  | 
Cc1cccc(-n2ncc(SCc3ccccc3)c(SCc3ccccc3)c2=O)c1 [compound 208703] |  |  |  |  | 9 | 2 | 16 | -18
O=C(c1ccc([N+](=O)[O-])o1)N(c1ccccc1)c1ccccc1 [compound 98705] | 8 | -8 | 9 | 14 |  |  |  | 
O=C(CSc1cnn(-c2ccccc2)c(=O)c1Cl)c1ccc(Br)cc1 [compound 183073] |  |  |  |  | 8 | -3 | 30 | -6
O=c1c(Sc2ccccc2)c(Sc2ccccc2)cnn1-c1ccccc1 [compound 195070] |  |  |  |  | -7 | 8 | -73 | 9
CCOC(=O)COc1cnn(-c2ccccc2)c(=O)c1Cl [compound 225042] |  |  |  |  | 6 | -18 | 5 | 10
O=c1c(SCc2ccco2)c(SCc2ccco2)cnn1-c1ccccc1 [compound 195071] |  |  |  |  | 9 | 71 | 82 | 77
O=c1cc(N2CCOCC2)cnn1-c1ccccc1 [compound 195066] |  |  |  |  | 9 | 8 | -9 | -3
COC(=O)NCCOc1cnn(-c2ccccc2)c(=O)c1 [compound 189493] |  |  |  |  | -8 | 2 | -25 | 12
Cc1ccc(C(C)C)c(OCC(=O)Oc2ccc(=O)n(-c3ccccc3)n2)c1 [compound 228706] |  |  |  |  | 5 | -16 | -25 | -11
COc1ccc(-n2nc(Cl)ccc2=O)cc1 [compound 194491] |  |  |  |  | -12 | -2 | -32 | 0
COc1cnn(-c2ccccc2)c(=O)c1SCc1ccc(Cl)c(Cl)c1 [compound 182729] |  |  |  |  | -14 | 10 | 1 | 23
O=C(Nc1ccc(Cl)cc1)c1cc2c(ccc3ccccc32)o1 [compound 77021] | -1 | 16 | 4 | -11 |  |  |  | 
O=C(COc1cnn(-c2ccccc2)c(=O)c1Cl)c1ccc(Cl)cc1 [compound 177215] |  |  |  |  | -9 | 6 | 13 | 25
O=c1c(SCc2ccccc2)c(SC2CCCCO2)cnn1-c1ccccc1 (stereo not drawn) [compound 182828] |  |  |  |  | -8 | 25 | 18 | -5
O=c1c(SCc2ccccc2)c(N2CCCCC2)cnn1-c1ccccc1 [compound 195989] |  |  |  |  | 6 | 21 | -27 | 35
O=c1c(N2CCCC2)c(Cl)cnn1-c1ccccc1 [compound 104304] |  |  |  |  | 14 | 52 | 107 | 98
